Experiment [1] deals with T1, hOT7T175 (Homo sapiens, UniProt Q969F8, L364H). Nature of the experiment: hOT7T175 receptor binding activity: binding inhibition of Cy-5-labeled metastin (40-54) on hOT7T175-expressed CHO cells. Details: expressed in transfected cells; host or cells: CHO cells. How it is done:
Assay for hOT7T175 Receptor Binding Activity
h0T7T175-Expressed CHO cells were cultured in MEM-cc medium (nucleic acid-free) containing 10% dialyzed serum. The medium was removed and the adherent cells were washed with PBS. Then, PBS containing 5 mM EDTA was added and the cells were scraped from a flask with a cell scraper. […] To each well of a 96-Well Black Clear Bottom Plate (Applied Biosystems, Inc.), 10 μL of assay buffer containing 1% dimethylsulfoxide was added to examine total binding, 10 μL of 10 μM non-labeled peptide (having the same amino acid sequence as that of the labeled one) solution diluted with assay buffer to examine non-specific binding, and 10 μL of a test compound diluted with assay buffer to examine the binding inhibition activity of the test compound, respectively. Furthermore, 90 μL each of the cell suspension was dispensed to each well. […] The specific binding is a value obtained by subtracting the non-specific binding from the total binding.

Experiment [2] deals with T1, hOT7T175. Nature of the experiment: Intracellular Ca ion level-increasing activity using FLIPR in hOT7T175/CHO. Format: cell-based. The arrangement: expressed in transfected cells; host or cells: CHO/dhfr- cells, obtained from ATCC. To be noted: relative, Metastin (1-54) = 1.

The text below walks through data of US8361968B2 (Takeda Pharmaceutical Company Limited, priority 2002, dated 2013).

Several values for one entry are separate records, joined by “and”; a condition that tells them apart may be missing. Equal entries are not always repeated. Square brackets hold non-standard residues; d marks the D form. Peptide text beside a SMILES is read from it. * marks the point of attachment. Propanoyl(3-indol-3-yl) = O=C(CCc1c[nH]c2ccccc12)*; 2Nal = N[C@@H](Cc1ccc2ccccc2c1)C(=O)O; Arg(Me) = CNC(=N)NCCC[C@H](N)C(=O)O; Bta = N[C@@H](Cc1csc2ccccc12)C(=O)O; X3 = NC(=S)[C@H](Cc1ccccc1)N*; Orn = NCCC[C@H](N)C(=O)O; azaGly = NNC(=O)O

T1 sequence (Q969F8 whole entry L364H): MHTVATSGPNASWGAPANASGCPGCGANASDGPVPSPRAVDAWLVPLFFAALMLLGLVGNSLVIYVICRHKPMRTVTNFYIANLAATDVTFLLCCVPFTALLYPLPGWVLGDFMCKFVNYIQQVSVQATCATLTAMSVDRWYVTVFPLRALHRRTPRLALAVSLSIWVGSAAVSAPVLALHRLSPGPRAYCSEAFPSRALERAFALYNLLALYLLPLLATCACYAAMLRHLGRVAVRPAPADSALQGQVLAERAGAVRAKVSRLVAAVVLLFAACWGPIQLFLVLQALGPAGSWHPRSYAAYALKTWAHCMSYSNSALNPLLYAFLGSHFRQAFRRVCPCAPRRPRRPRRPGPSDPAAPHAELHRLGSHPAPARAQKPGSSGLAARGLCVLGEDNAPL

As a reminder, the IC50 is the concentration needed to halve the response being measured. The compound `CCCC[C@H](NC(=O)CNC(=O)[C@H](Cc1ccccc1)NC(=O)[C@H](CO)NC(=O)[C@H](CC(N)=O)NC(=O)[C@H](Cc1c[nH]c2ccccc12)NC(=O)[C@H](CC(N)=O)NC(=O)[C@@H](N)Cc1ccc(O)cc1)C(=O)N[C@@H](CCCNC(=N)N)C(=O)N[C@@H](Cc1ccccc1)C(N)=O` [Compound No. 105, Tyr-Asn-Trp-Asn-Ser-Phe-Gly-Nle-Arg-Phe-NH2] yielded an IC50 at hOT7T175 [1] of 880 nM. The “Specific Activity (intracellular Ca ion level-increasing activity)” value on hOT7T175 [2] was determined as 1. For `CNC(=N)NCCC[C@H](NC(=O)[C@H](CC(C)C)NC(=O)NNC(=O)[C@H](Cc1ccccc1)NC(=O)[C@H](CO)NC(=O)[C@H](CC(N)=O)NC(=O)[C@H](C)NC(=O)[C@H](CC(N)=O)NC(=O)[C@H](N)Cc1ccc(O)cc1)C(=O)N[C@@H](Cc1ccccc1)C(N)=O` [Compound No. 235, D-Tyr-Asn-Ala-Asn-Ser-Phe-AzaGly-Leu-Arg(Me)-Phe-NH2] (H-[dY]NANSF[azaGly]L[Arg(Me)]F-NH2) the same measures were 100 nM and 1.

With `CNC(=N)NCCC[C@H](NC(=O)[C@H](CC(C)C)NC(=O)CNC(=O)[C@H](Cc1ccccc1)NC(=O)[C@H](CO)NC(=O)[C@H](CC(N)=O)NC(=O)[C@H](CO)NC(=O)[C@H](CC(N)=O)NC(=O)[C@H](N)Cc1ccc(O)cc1)C(=O)N[C@@H](Cc1ccccc1)C(N)=O` [Compound No. 170] (H-[dY]NSNSFGL[Arg(Me)]F-NH2; N-terminus assumed), on hOT7T175 [1], the IC50 worked out at 260 nM. The “Specific Activity (intracellular Ca ion level-increasing activity)” value at hOT7T175 [2] was 1. For `CNC(=N)NCCC[C@H](NC(=O)[C@H](CC(C)C)NC(=O)NNC(=O)[C@H](Cc1ccccc1)NC(=O)[C@H](CO)NC(=O)[C@H](CC(N)=O)NC(=O)[C@@H](Cc1c[nH]c2ccccc12)NC(=O)[C@@H](CC(N)=O)NC(=O)[C@H](N)Cc1ccc(O)cc1)C(=O)N[C@@H](Cc1ccccc1)C(N)=O` [Compound No. 238, D-Tyr-D-Asn-D-Trp-Asn-Ser-Phe-AzaGly-Leu-Arg(Me)-Phe-NH2], the IC50 at hOT7T175 [1] is 49 nM. Further, the “Specific Activity (intracellular Ca ion level-increasing activity)” value on hOT7T175 [2] is given as 1. The matching figures for `CC(C)C[C@H](NC(=O)CNC(=O)[C@H](Cc1ccccc1)NC(=O)[C@H](CO)NC(=O)[C@H](CC(N)=O)NC(=O)[C@H](Cc1c[nH]c2ccccc12)NC(=O)[C@H](CC(N)=O)NC(=O)[C@@H](N)Cc1ccc(O)cc1)C(=O)N[C@@H](CCCNC(=N)N)C(=O)N[C@@H](Cc1csc2ccccc12)C(N)=O` [Compound No. 189] (H-YNWNSFGLR[Bta]-NH2; N-terminus assumed): 230 nM and 10. For `CNC(=N)NCCC[C@H](NC(=O)[C@H](CC(C)C)NC(=O)NNC(=O)[C@H](Cc1ccccc1)NC(=O)[C@H](Cc1ccccc1)NC(=O)[C@H](CO)NC(=O)[C@H](CC(N)=O)NC(=O)[C@H](Cc1ccccc1)NC(=O)[C@H](CC(N)=O)NC(=O)[C@H](N)Cc1ccc(O)cc1)C(=O)N[C@@H](Cc1ccccc1)C(N)=O` [Compound No. 270, D-Tyr-Asn-Phe-Asn-Ser-Phe-Phe-AzaGly-Leu-Arg(Me)-Phe-NH2] (H-[dY]NFNSFF[azaGly]L[Arg(Me)]F-NH2) the same measures were 15 nM and 1. The matching figures for `CC(C)C[C@H](NC(=O)CNC(=O)[C@H](Cc1ccccc1)NC(=O)[C@H](CO)NC(=O)[C@H](CC(N)=O)NC(=O)[C@H](Cc1c[nH]c2ccccc12)NC(=O)[C@H](CC(N)=O)NC(=O)[C@H](N)Cc1ccc(O)cc1)C(=O)N[C@@H](CCCNC(=N)N)C(=O)N[C@@H](Cc1ccccc1)C(N)=S` [Compound No. 146] (H-[dY]NWNSFGLR-X3): 370 nM and 10. `CNC(=N)NCCC[C@H](NC(=O)[C@H](CC(C)C)NC(=O)CNC(=O)[C@H](Cc1ccccc1)NC(=O)[C@H](CO)NC(=O)[C@H](CC(N)=O)NC(=O)[C@@H](Cc1c[nH]c2ccccc12)NC(=O)[C@H](N)Cc1ccc(O)cc1)C(=O)N[C@@H](Cc1ccccc1)C(N)=O` [Compound No. 224, D-Tyr-D-Trp-Asn-Ser-Phe-Gly-Leu-Arg(Me)-Phe-NH2] (H-[dY][dW]NSFGL[Arg(Me)]F-NH2) yielded an IC50 at hOT7T175 [1] of 140 nM. Moreover, the “Specific Activity (intracellular Ca ion level-increasing activity)” value on hOT7T175 [2] is 2 and 1. As for `CC(C)C[C@H](NC(=O)CNC(=O)[C@H](Cc1ccccc1)NC(=O)[C@H](CO)NC(=O)[C@H](CC(N)=O)NC(=O)[C@H](Cc1c[nH]c2ccccc12)NC(=O)[C@H](CC(N)=O)NC(=O)[C@@H](N)Cc1ccc(O)cc1)C(=O)N[C@@H](CCCN)C(=O)N[C@@H](Cc1ccccc1)C(N)=O` [Compound No. 314] (H-YNWNSFGL[Orn]F-NH2), the IC50 at hOT7T175 [1] was 470 nM. Also, the “Specific Activity (intracellular Ca ion level-increasing activity)” value on hOT7T175 [2] came out at 1.

The compound `CC(C)C[C@H](NC(=O)CNC(=O)[C@H](Cc1ccccc1)NC(=O)[C@H](CO)NC(=O)[C@H](CC(N)=O)NC(=O)[C@H](Cc1c[nH]c2ccccc12)NC(=O)[C@H](CC(N)=O)NC(=O)[C@H](Cc1ccc(O)cc1)NC(=O)[C@H](CC(N)=O)NC(=O)[C@@H]1CCCN1C(=O)[C@@H](N)CC(C)C)C(=O)N[C@@H](CCCNC(=N)N)C(=O)N[C@@H](Cc1ccccc1)C(N)=O` [Compound No. 32, reference compound] returned an IC50 on hOT7T175 [1] of 25 nM. In addition, on hOT7T175 [2], the “Specific Activity (intracellular Ca ion level-increasing activity)” value came to 10. In turn, `CNC(=N)NCCC[C@H](NC(=O)[C@H](CC(C)C)NC(=O)NNC(=O)[C@H](Cc1ccccc1)NC(=O)[C@H](CO)NC(=O)[C@H](CC(N)=O)NC(=O)CCc1c[nH]c2ccccc12)C(=O)N[C@@H](Cc1ccccc1)C(N)=O` [Compound No. 260, 3-(3-Indolyl)propionyl-Asn-Ser-Phe-AzaGly-Leu-Arg(Me)-Phe-NH2] ({Propanoyl(3-indol-3-yl)}-NSF[azaGly]L[Arg(Me)]F-NH2) gave an IC50 on hOT7T175 [1] of 320 nM. For the same compound, the “Specific Activity (intracellular Ca ion level-increasing activity)” value on hOT7T175 [2] is reported as 5. On to `CC(C)[C@H](NC(=O)CNC(=O)[C@H](Cc1ccccc1)NC(=O)[C@H](CO)NC(=O)[C@H](CC(N)=O)NC(=O)[C@H](Cc1c[nH]c2ccccc12)NC(=O)[C@H](CC(N)=O)NC(=O)[C@@H](N)Cc1ccc(O)cc1)C(=O)N[C@@H](CCCNC(=N)N)C(=O)N[C@@H](Cc1ccccc1)C(N)=O` [Compound No. 107] (H-YNWNSFGVRF-NH2), for which, at hOT7T175 [1], the IC50 was 120 nM. The same measure, in the same setting: for `CNC(N)=NCCC[C@H](NC(=O)[C@H](CC(C)C)NC(=O)NNC(=O)[C@H](Cc1ccccc1)NC(=O)[C@H](CO)NC(=O)[C@H](CC(N)=O)NC(=O)[C@H](Cc1ccc2ccccc2c1)NC(=O)[C@H](N)Cc1ccc(O)cc1)C(=O)N[C@@H](Cc1ccccc1)C(N)=O` [Compound No. 255, D-Tyr-Nal(2)-Asn-Ser-Phe-AzaGly-Leu-Arg(Me)-Phe-NH2] (H-[dY][2Nal]NSF[azaGly]L[Arg(Me)]F-NH2) the value was 33 nM. Same read-out and setting: the same measure for `CNC(N)=NCCC[C@H](NC(=O)[C@H](CC(C)C)NC(=O)NNC(=O)[C@H](Cc1ccccc1)NC(=O)[C@H](CO)NC(=O)[C@H](CC(N)=O)NC(=O)[C@H](CO)NC(=O)[C@H](CC(N)=O)NC(=O)[C@H](N)Cc1ccc(O)cc1)C(=O)N[C@@H](Cc1ccccc1)C(N)=O` [Compound No. 191, D-Tyr-Asn-Ser-Asn-Ser-Phe-AzaGly-Leu-Arg(Me)-Phe-NH2] (H-[dY]NSNSF[azaGly]L[Arg(Me)]F-NH2): 300 nM.
